Earlier results, collected in paper PMC9610285 (Pharmaceutics, 2022).

Settings: cited from earlier work

## C#CCN[C@@H]1CCc2ccccc21 [rasagiline, Rasagiline]
  capacity to cross the blood-brain barrier: high capacity to cross the blood-brain barrier
  elimination half-life (t1/2): 36 to 120 min
  oral bioavailability: 36%
  plasma protein binding: 60–70%
  urine elimination: 62.6%
Oral tablet
  tmax (time to reach Cmax): approximately 0.5 h
